Measurements taken from patent publication US10981926B2 (Janssen Pharmaceutica NV, priority 2016, dated 2021).

What was measured:
Format in all cases: cell-based
[1] = target: T1, wild-type Androgen Receptor (AR-wt) (Homo sapiens (Human), UniProt P10275); assay: LNCaP-AR-wt ANT reporter assay (antagonist mode); details: for IC50: pIC50 = −Log10(IC50 in Molar), read-out: LNCaP-AR-wt ANT pIC50 (converted); for Emax: read-out: LNCaP-AR-wt ANT MAX % Inh
[2] = target: T1, wild-type Androgen Receptor (AR-wt); assay: LNCaP-AR-wt AG reporter assay (agonist mode); details: for EC50: pEC50 = −Log10(EC50 in Molar), read-out: LNCaP-AR-wt AG pEC50 (converted); for Emax: read-out: LNCaP-AR-wt AG MAX % Stim
[3] = target: T2, F876L mutant Androgen Receptor (AR-F876L) (Homo sapiens (Human), UniProt P10275, F877L); assay: LNCaP-AR-F876L ANT reporter assay (antagonist mode); details: for IC50: pIC50 = −Log10(IC50 in Molar), read-out: LNCaP-AR-F876L ANT pIC50 (converted); for Emax: read-out: LNCaP-AR-F876L ANT MAX % Inh
[4] = target: T2, F876L mutant Androgen Receptor (AR-F876L); assay: LNCaP-AR-F876L AG reporter assay (agonist mode); details: for EC50: pEC50 = −Log10(EC50 in Molar), read-out: LNCaP-AR-F876L AG pEC50 (converted); for Emax: read-out: LNCaP-AR-F876L AG MAX % Stim
[5] = maximum % inhibition of R1881 control response over the tested concentration range
[6] = maximum % stimulation (agonist response) over the tested concentration range
[7] = antagonist mode, maximum % inhibition of R1881 control response over tested concentration range
[8] = agonist mode, maximum % stimulation over tested concentration range

T2 sequence (P10275 whole entry F877L): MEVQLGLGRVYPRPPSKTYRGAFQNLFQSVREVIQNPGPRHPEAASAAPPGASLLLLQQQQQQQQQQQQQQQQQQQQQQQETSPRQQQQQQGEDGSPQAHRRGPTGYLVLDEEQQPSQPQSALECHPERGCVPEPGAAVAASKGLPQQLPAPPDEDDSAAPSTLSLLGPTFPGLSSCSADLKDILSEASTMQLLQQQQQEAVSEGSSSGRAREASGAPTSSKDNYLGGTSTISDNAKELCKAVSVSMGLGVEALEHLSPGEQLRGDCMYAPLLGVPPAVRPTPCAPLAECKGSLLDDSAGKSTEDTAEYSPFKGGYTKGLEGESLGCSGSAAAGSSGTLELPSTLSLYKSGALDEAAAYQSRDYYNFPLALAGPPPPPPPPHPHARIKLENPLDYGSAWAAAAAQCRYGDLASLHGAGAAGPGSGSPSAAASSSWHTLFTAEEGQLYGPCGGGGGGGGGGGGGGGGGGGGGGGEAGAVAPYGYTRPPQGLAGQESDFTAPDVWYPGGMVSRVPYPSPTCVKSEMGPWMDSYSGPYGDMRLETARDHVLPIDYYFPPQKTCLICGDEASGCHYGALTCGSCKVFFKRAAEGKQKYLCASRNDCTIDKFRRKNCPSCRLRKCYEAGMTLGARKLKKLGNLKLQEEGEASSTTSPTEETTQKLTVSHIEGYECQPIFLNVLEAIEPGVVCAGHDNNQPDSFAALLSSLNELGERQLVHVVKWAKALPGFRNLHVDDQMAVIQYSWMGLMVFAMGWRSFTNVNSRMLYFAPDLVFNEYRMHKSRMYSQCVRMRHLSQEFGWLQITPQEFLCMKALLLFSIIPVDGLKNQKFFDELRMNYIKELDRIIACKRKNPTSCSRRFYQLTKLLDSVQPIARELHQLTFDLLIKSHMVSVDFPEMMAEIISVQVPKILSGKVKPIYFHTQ
T1 sequence (P10275 whole entry): as the sequence (P10275 whole entry F877L) above, with L877F counted along it

N#Cc1ncc(N2C(=O)C3(CCC3)N(c3ccc4nn(CC5CCNCC5)cc4c3)C2=S)cc1C(F)(F)F [Cpd 126, 5-[5-oxo-8-[2-(4-piperidylmethyl)indazol-5-yl]-7-thioxo-6,8-diazaspiro[3.4]octan-6-yl]-3-(trifluoromethyl)pyridine-2-carbonitrile]
IC50 ([1]; antagonist mode): 275 nM | Emax [1, 5]: 101% | EC50 ([2]; agonist mode): > 15100 nM | Emax [2, 6]: 0.2% | IC50 ([3]; antagonist mode): 204 nM | Emax [3, 5]: 100% | EC50 ([4]; agonist mode): > 15100 nM | Emax [4, 6]: 0.8%

N#Cc1ncc(N2C(=O)C3(CCC3)N(c3ccc(OC4CCSCC4)cc3)C2=S)cc1C(F)(F)F [Cpd 12, 5-[5-oxo-8-(4-thian-4-yloxyphenyl)-7-thioxo-6,8-diazaspiro[3.4]oct-6-yl]-3-(trifluoromethyl)pyridine-2-carbonitrile]
IC50 ([1]; antagonist mode): 661 nM | Emax [1, 5]: 101% | EC50 ([2]; agonist mode): > 15100 nM | Emax [2, 6]: 0.5% | IC50 ([3]; antagonist mode): 117 nM | Emax [3, 5]: 98.5% | EC50 ([4]; agonist mode): > 15100 nM | Emax [4, 6]: 0.7%

CC(=O)N1CCc2cc(N3C(=S)N(c4cnc(C#N)c(C(F)(F)F)c4)C(=O)C34CCC4)ccc2C1 [Cpd 120, 5-(5-(2-acetyl-1,2,3,4-tetrahydroisoquinolin-6-yl)-8-oxo-6-thioxo-5,7-diazaspiro[3.4]octan-7-yl)-3-(trifluoromethyl)picolinonitrile]
IC50 ([1]; antagonist mode): 200 nM | Emax [1, 5]: 100% | EC50 ([2]; agonist mode): > 15100 nM | Emax [2, 6]: 0.2% | IC50 ([3]; antagonist mode): 339 nM | Emax [3, 5]: 101% | EC50 ([4]; agonist mode): > 15100 nM | Emax [4, 6]: 1.1%

CC1(Oc2ccc(N3C(=S)N(c4cnc(C#N)c(C(F)(F)F)c4)C(=O)C34CCC4)cc2)CCNCC1 [Cpd 140, 5-[8-[4-[(4-methyl-4-piperidyl)oxy]phenyl]-5-oxo-7-thioxo-6,8-diazaspiro[3.4]octan-6-yl]-3-(trifluoromethyl)pyridine-2-carbonitrile]
IC50 ([1]; antagonist mode): 1000 nM | Emax [1, 5]: 99.9% | EC50 ([2]; agonist mode): > 15100 nM | Emax [2, 6]: 0.3% | IC50 ([3]; antagonist mode): 339 nM | Emax [3, 5]: 99.5% | EC50 ([4]; agonist mode): > 15100 nM | Emax [4, 6]: 0%

COc1cc(N2C(=O)C3(CCC3)N(c3ccc(CC4CCN(C)CC4)cc3)C2=S)cnc1C#N [Cpd 239, 3-methoxy-5-[8-[4-[(1-methyl-4-piperidyl)methyl]phenyl]-5-oxo-7-thioxo-6,8-diazaspiro[3.4]octan-6-yl]pyridine-2-carbonitrile]
Emax [1, 7]: 103% | IC50 ([1]; antagonist mode): 603 nM | Emax [2, 8]: -0.1% | EC50 ([2]; agonist mode): > 15100 nM | Emax [3, 7]: 102% | IC50 ([3]; antagonist mode): 347 nM | Emax [4, 8]: 0.2% | EC50 ([4]; agonist mode): > 15100 nM

CC(C)(C)OC(=O)N1CCN(C(=O)c2ccc(N3C(=S)N(c4cnc(C#N)c(C(F)(F)F)c4)C(=O)C34CCC4)cc2)CC1 [Cpd 32, tert-butyl 4-[4-[6-[6-cyano-5-(trifluoromethyl)-3-pyridyl]-5-oxo-7-thioxo-6,8-diazaspiro[3.4]octan-8-yl]benzoyl]piperazine-1-carboxylate]
IC50 ([1]; antagonist mode): 2140 nM | Emax [1, 5]: 64.9% | EC50 ([2]; agonist mode): > 15100 nM | Emax [2, 6]: 0.4% | IC50 ([3]; antagonist mode): 1120 nM | Emax [3, 5]: 74.1% | EC50 ([4]; agonist mode): > 15100 nM | Emax [4, 6]: -0.1%

Cc1cc(N2C(=O)C3(CCC3)N(c3cnc(OC4CCN(CCO)CC4)nc3)C2=S)cnc1C#N [Cpd 254, 5-[8-[2-[[1-(2-hydroxyethyl)-4-piperidyl]oxy]pyrimidin-5-yl]-5-oxo-7-thioxo-6,8-diazaspiro[3,4]octan-6-yl]-3-methyl-pyridine-2-carbonitrile]
Emax [1, 7]: 0% | IC50 ([1]; antagonist mode): 891 nM | Emax [2, 8]: -0.1% | EC50 ([2]; agonist mode): > 15100 nM | Emax [3, 7]: 99.3% | IC50 ([3]; antagonist mode): 708 nM | Emax [4, 8]: 0.4% | EC50 ([4]; agonist mode): > 15100 nM

COCCn1ncc2ccc(N3C(=S)N(c4cnc(C#N)c(C(F)(F)F)c4)C(=O)C34CCC4)cc21 [Cpd 160, 5-[8-[1-(2-methoxyethyl)indazol-6-yl]-5-oxo-7-thioxo-6,8-diazaspiro[3.4]octan-6-yl]-3-(trifluoromethyl)pyridine-2-carbonitrile]
IC50 ([1]; antagonist mode): 1230 nM | Emax [1, 5]: 103% | EC50 ([2]; agonist mode): > 15100 nM | Emax [2, 6]: 0.1% | IC50 ([3]; antagonist mode): 708 nM | Emax [3, 5]: 101% | EC50 ([4]; agonist mode): > 15100 nM | Emax [4, 6]: 0%

N#Cc1ncc(N2C(=O)C3(CCC3)N(c3ccc(OC4CCN5CCCC5C4)cc3)C2=S)cc1C(F)(F)F (stereo not drawn) [Cpd 156, 5-[8-[4-(1,2,3,5,6,7,8,8a-octahydroindolizin-7-yloxy)phenyl]-5-oxo-7-thioxo-6,8-diazaspiro[3.4]octan-6-yl]-3-(trifluoromethyl)pyridine-2-carbonitrile]
IC50 ([1]; antagonist mode): 282 nM | Emax [1, 5]: 100% | EC50 ([2]; agonist mode): > 15100 nM | Emax [2, 6]: 1% | IC50 ([3]; antagonist mode): 178 nM | Emax [3, 5]: 101% | EC50 ([4]; agonist mode): > 15100 nM | Emax [4, 6]: 0.9%

CN1CC2CCC(C1)C2Oc1ccc(N2C(=S)N(c3cnc(C#N)c(C(F)(F)F)c3)C(=O)C23CCC3)cc1 (stereo not drawn) [Cpd 146, 5-[8-[4-[(3-methyl-3-azabicyclo[3.2.1]octan-8-yl)oxy]phenyl]-5-oxo-7-thioxo-6,8-diazaspiro[3.4]octan-6-yl]-3-(trifluoromethyl)pyridine-2-carbonitrile]
IC50 ([1]; antagonist mode): 100 nM | Emax [1, 5]: 103% | EC50 ([2]; agonist mode): > 15100 nM | Emax [2, 6]: 0.1% | IC50 ([3]; antagonist mode): 61.7 nM | Emax [3, 5]: 101% | EC50 ([4]; agonist mode): > 15100 nM | Emax [4, 6]: -0.1%

CN1CC(CNC(=O)c2ccc(N3C(=S)N(c4cnc(C#N)c(C(F)(F)F)c4)C(=O)C34CCC4)cc2)C1 [Cpd 216, 4-[6-[6-cyano-5-(trifluoromethyl)-3-pyridyl]-5-oxo-7-thioxo-6,8-diazaspiro[3.4]octan-8-yl]-N-[(1-methylazetidin-3-yl)methyl]benzamide]
Emax [1, 7]: 98.8% | IC50 ([1]; antagonist mode): 1620 nM | Emax [2, 8]: 0.1% | EC50 ([2]; agonist mode): > 15100 nM | Emax [3, 7]: 98.7% | IC50 ([3]; antagonist mode): 1480 nM | Emax [4, 8]: 0% | EC50 ([4]; agonist mode): > 15100 nM

COc1cc(N2C(=O)C3(CCC3)N(c3ccc(OC4CCN(C)CC4)nc3)C2=S)cnc1C#N [Cpd 25]
Emax [1, 5]: 101% | EC50 ([2]; agonist mode): > 15100 nM | Emax [2, 6]: 0% | Emax [3, 5]: 100% | EC50 ([4]; agonist mode): > 15100 nM | Emax [4, 6]: 0.2%

N#Cc1ncc(N2C(=O)C3(CCC3)N(c3ccc(OC4CCNCC4(F)F)cc3)C2=S)cc1C(F)(F)F (racemic) [Cpd 136, (R,S)-5-[8-[4-[(3,3-difluoro-4-piperidyl)oxy]phenyl]-5-oxo-7-thioxo-6,8-diazaspiro[3.4]octan-6-yl]-3-(trifluoromethyl)pyridine-2-carbonitrile]
IC50 ([1]; antagonist mode): 132 nM | Emax [1, 5]: 105% | EC50 ([2]; agonist mode): > 15100 nM | Emax [2, 6]: -0.1% | IC50 ([3]; antagonist mode): 126 nM | Emax [3, 5]: 102% | EC50 ([4]; agonist mode): > 15100 nM | Emax [4, 6]: 0.3%

CN1CCC[C@H](Oc2ccc(N3C(=S)N(c4cnc(C#N)c(C(F)(F)F)c4)C(=O)C34CCC4)cc2)C1 [Cpd 20, 5-{8-[4-((3S)-1-methyl(3-piperidyloxy))phenyl]-5-oxo-7-thioxo-6,8-diazaspiro[3.4]oct-6-yl}-3-(trifluoromethyl)pyridine-2-carbonitrile]
IC50 ([1]; antagonist mode): 1820 nM | Emax [1, 5]: 93.2% | EC50 ([2]; agonist mode): > 15100 nM | Emax [2, 6]: 0.2% | IC50 ([3]; antagonist mode): 513 nM | Emax [3, 5]: 97.7% | EC50 ([4]; agonist mode): > 15100 nM | Emax [4, 6]: -0.5%

CN1C2CCC1CC(c1ccc(N3C(=S)N(c4cnc(C#N)c(C(F)(F)F)c4)C(=O)C34CCC4)cc1)C2 (stereo not drawn) [Cpd 114, 5-(5-(4-(8-methyl-8-azabicyclo[3.2.1]octan-3-yl)phenyl)-8-oxo-6-thioxo-5,7-diazaspiro[3.4]octan-7-yl)-3-(trifluoromethyl)picolinonitrile]
IC50 ([1]; antagonist mode): 2690 nM | Emax [1, 5]: 102% | EC50 ([2]; agonist mode): > 15100 nM | Emax [2, 6]: -0.1% | IC50 ([3]; antagonist mode): 1020 nM | Emax [3, 5]: 101% | EC50 ([4]; agonist mode): > 15100 nM | Emax [4, 6]: 0.3%

CN1CCC(Oc2ccc(N3C(=S)N(c4cnc(C#N)c(C(F)(F)F)c4)C(=O)C34CCC4)cc2)CC12CCC2 (racemic) [Cpd 178, (R,S)-5-[8-[4-[(9-methyl-9-azaspiro[3.5]nonan-6-yl)oxy]phenyl]-5-oxo-7-thioxo-6,8-diazaspiro[3.4]octan-6-yl]-3-(trifluoromethyl)pyridine-2-carbonitrile]
IC50 ([1]; antagonist mode): 174 nM | Emax [1, 5]: 104% | EC50 ([2]; agonist mode): > 15100 nM | Emax [2, 6]: 0.3% | IC50 ([3]; antagonist mode): 234 nM | Emax [3, 5]: 102% | EC50 ([4]; agonist mode): > 15100 nM | Emax [4, 6]: 0%

COc1cc(N2C(=O)C3(CCC3)N(c3ccc(CN4CCNCC4)cc3)C2=S)cnc1C#N [Cpd 229, 3-methoxy-5-[5-oxo-8-[4-(piperazin-1-ylmethyl)phenyl]-7-thioxo-6,8-diazaspiro[3.4]octan-6-yl]pyridine-2-carbonitrile]
Emax [2, 8]: 0% | EC50 ([2]; agonist mode): > 15100 nM | Emax [3, 7]: 101% | IC50 ([3]; antagonist mode): 129 nM | Emax [4, 8]: 0% | EC50 ([4]; agonist mode): > 15100 nM
